Assay results from patent publication US11696913B2, “Prolonged ectoparasite-controlling agent for animal” (MITSUI CHEMICALS AGRO, INC., priority 2017, dated 2023).
Like-named read-outs stand apart in the source and are kept apart here.

Experiments:
[1] = tested on: Rhipicephalus (Boophilus) microplus; test: In vitro injection test with Rhipicephalus (Boophilus) microplus (BOOPMI Inj); conditions: 168 h, laid fertile eggs after 7 days, read-out: acaricidal activity; for pest or weed control at 0.00016 mg: dose 0.16 μg/animal injected; for pest or weed control at 0.0008 mg: dose 0.8 μg/animal injected; for pest or weed control at 32 ng: dose 0.032 μg/animal injected
Procedure, shortened: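 Five engorged adult females each get a 1 μl abdominal injection of compound dissolved and diluted in DMSO. Kept 7 days at 28° C./85% rel. hum.; percent activity rates egg laying and egg fertility (0% all fertile, 100% none laid or infertile).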

[2] = tested on: Rhipicephalus sanguineus; test: In vitro contact test with adult hard ticks (Rhipicephalus sanguineus); conditions: read-out: acaricidal activity; for pest or weed control at 0.2 µg/cm2, 0.2 µg/cm2: dose 0.2 μg/cm^2, 48 h; for pest or weed control at 1 µg/cm2, 1 µg/cm2: dose 1 μg/cm^2, 48 h
Procedure, shortened: (§1)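 Acaricidal activity = % ticks dead or moribund after 48 h contact with acetone-deposited compound on vial walls (e.g., 900 ppm solution → 5 μg/cm^2). Ambient conditions for R. sanguineus, 21° C./85% rel. hum. for other species; heat challenge at 45-50° C. separated climbers from moribund ticks.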

[3] = tested on: Dermacentor variabilis; test: In vitro contact test with adult hard ticks (Dermacentor variabilis); conditions: read-out: acaricidal activity; for pest or weed control at 0.2 µg/cm2, 0.2 µg/cm2: dose 0.2 μg/cm^2, 48 h; for pest or weed control at 1 µg/cm2, 1 µg/cm2: dose 1 μg/cm^2, 48 h
Procedure, shortened: as §1

[4] = tested on: Ctenocephalides felis; test: Ctenocephalides felis in-vitro feeding test with fleas (CTECFE oral); conditions: 48 hours, read-out: insecticidal feeding activity; for pest or weed control at 0.16 ppm: dose 0.16 ppm in citrated cattle blood; for pest or weed control at 0.8 ppm: dose 0.8 ppm in citrated cattle blood; for pest or weed control at 4 ppm: dose 4 ppm in citrated cattle blood; for pest or weed control at 0.032 ppm: dose 0.032 ppm in citrated cattle blood
Procedure, shortened: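 Scored as percent fleas killed (0–100%) 48 hours after feeding began. Compound, dissolved in DMSO and diluted into citrated cattle blood, was offered via a parafilm membrane to roughly 20 adult male and female C. felis at about 37° C.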

[5] = tested on: Plutella xylostella; test: Insecticidal testing against diamondback moth; assay type: in vivo; conditions: foliar, 144 h, concentration 100 ppm, cabbage leaf dip, third-stage larvae, after 6 days, read-out: pesticidal rate
Description: Insecticidal Testing Against Diamondback Moth (Plutella xylostella)

[6] = tested on: Amblyomma americanum; test: In vitro contact test with hard ticks (Amblyomma americanum nymphs); conditions: read-out: acaricidal activity; for pest or weed control at 0.2 µg/cm2, 0.2 µg/cm2: dose 0.2 μg/cm^2, 48 h; for pest or weed control at 1 µg/cm2, 1 µg/cm2: dose 1 μg/cm^2, 48 h
Procedure, shortened: as §1

[7] = tested on: Spodoptera litura; test: Insecticidal testing against common cutworm; assay type: in vivo; conditions: foliar, 144 h, concentration 100 ppm, cabbage leaf dip, second-stage larvae, after 6 days, read-out: pesticidal rate
Description: Insecticidal Testing Against Common Cutworm (Spodoptera litura)

[8] = tested on: Ixodes ricinus; test: In vitro contact test with adult hard ticks (Ixodes ricinus); conditions: read-out: acaricidal activity; for pest or weed control at 5 µg/cm2, 5 µg/cm2: dose 5 μg/cm^2, 48 h
Procedure, shortened: as §1

[9] = tested on: Ctenocephalides felis; test: In vitro contact test with fleas; conditions: read-out: insecticidal activity; for pest or weed control at 0.04 µg/cm2, 0.04 µg/cm2: dose 0.04 μg/cm^2, dead or moribund fleas after 48 h; for pest or weed control at 0.2 µg/cm2, 0.2 µg/cm2: dose 0.2 μg/cm^2, dead or moribund fleas after 48 h; for pest or weed control at 1 µg/cm2, 1 µg/cm2: dose 1 μg/cm^2, dead or moribund fleas after 48 h
Procedure, shortened: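 Activity is the percentage of fleas dead or moribund at 48 h, judged by immobility or uncoordinated movement after tapping. Tubes were coated by evaporating acetone solutions (900 ppm gives 5 μg/cm^2), then held 5-10 adult fleas of both sexes at room temperature and ambient humidity.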

[10] = tested on: Laodelphax striatellus; test: Insecticidal testing against small brown planthopper; assay type: in vivo; conditions: 144 h, concentration 100 ppm, sprayed rice seedlings, after 6 days, read-out: pesticidal rate
Procedure, shortened: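 Acetone solution of compound at a set concentration sprayed onto rice seedlings, air-dried, then exposed to 10 planthoppers (one group). Held at 25° C; survival rate recorded after 6 days.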

O=C(Nc1cccc(C(=O)Nc2c(Br)cc(C(F)(C(F)(F)F)C(F)(F)F)cc2OC(F)(F)F)c1F)c1ccc(F)c(F)c1 [Compound 101]
95%: pest or weed control at 0.16 ppm [4] | pest or weed control at 0.8 ppm [4] | pest or weed control at 4 ppm [4] | pest or weed control at 0.04 µg/cm2, 0.04 µg/cm2 [9] | pest or weed control at 0.2 µg/cm2, 0.2 µg/cm2 [9] | pest or weed control at 1 µg/cm2, 1 µg/cm2 [9]
90%: pest or weed control at 0.2 µg/cm2, 0.2 µg/cm2 [2] | pest or weed control at 1 µg/cm2, 1 µg/cm2 [2] | pest or weed control at 0.2 µg/cm2, 0.2 µg/cm2 [3] | pest or weed control at 1 µg/cm2, 1 µg/cm2 [3] | pest or weed control at 0.2 µg/cm2, 0.2 µg/cm2 [6] | pest or weed control at 1 µg/cm2, 1 µg/cm2 [6] | pest or weed control at 0.2 µg/cm2, 0.2 µg/cm2 ([8]; dose 0.2 μg/cm^2, 48 h) | pest or weed control at 1 µg/cm2, 1 µg/cm2 ([8]; dose 1 μg/cm^2, 48 h) | pest or weed control at 5 µg/cm2, 5 µg/cm2 [8]
100%: pest or weed control at 0.00016 mg [1] | pest or weed control at 0.0008 mg [1]
≥ 70%: pest or weed control at 100 ppm [5] | pest or weed control at 100 ppm [7] | pest or weed control at 100 ppm [10]

O=C(Nc1cccc(C(=O)Nc2c(I)cc(C(F)(C(F)(F)F)C(F)(F)F)cc2S(=O)(=O)C(F)(F)F)c1F)c1ccc(F)cc1 [Compound 64]
95%: pest or weed control at 0.16 ppm [4] | pest or weed control at 0.8 ppm [4] | pest or weed control at 4 ppm [4] | pest or weed control at 0.2 µg/cm2, 0.2 µg/cm2 [9] | pest or weed control at 1 µg/cm2, 1 µg/cm2 [9]
100%: pest or weed control at 32 ng [1] | pest or weed control at 0.00016 mg [1] | pest or weed control at 0.0008 mg [1]
90%: pest or weed control at 0.2 µg/cm2, 0.2 µg/cm2 [2] | pest or weed control at 1 µg/cm2, 1 µg/cm2 [2] | pest or weed control at 0.2 µg/cm2, 0.2 µg/cm2 [3] | pest or weed control at 1 µg/cm2, 1 µg/cm2 [3] | pest or weed control at 0.2 µg/cm2, 0.2 µg/cm2 [6] | pest or weed control at 1 µg/cm2, 1 µg/cm2 [6] | pest or weed control at 1 µg/cm2, 1 µg/cm2 ([8]; dose 1 μg/cm^2, 48 h) | pest or weed control at 5 µg/cm2, 5 µg/cm2 [8]
≥ 70%: pest or weed control at 100 ppm [5] | pest or weed control at 100 ppm [7] | pest or weed control at 100 ppm [10]

CN(C(=O)c1ccc(F)cc1)c1cccc(C(=O)Nc2c(Br)cc(C(F)(C(F)(F)F)C(F)(F)C(F)(F)F)cc2OC(F)F)c1F (centres unmarked) [Compound 105]
100%: pest or weed control at 32 ng [1] | pest or weed control at 0.00016 mg [1] | pest or weed control at 0.0008 mg [1]
90%: pest or weed control at 1 µg/cm2, 1 µg/cm2 [2] | pest or weed control at 0.2 µg/cm2, 0.2 µg/cm2 [3] | pest or weed control at 1 µg/cm2, 1 µg/cm2 [3] | pest or weed control at 0.04 µg/cm2, 0.04 µg/cm2 ([6]; dose 0.04 μg/cm^2, 48 h) | pest or weed control at 1 µg/cm2, 1 µg/cm2 [6] | pest or weed control at 1 µg/cm2, 1 µg/cm2 ([8]; dose 1 μg/cm^2, 48 h) | pest or weed control at 5 µg/cm2, 5 µg/cm2 [8]
≥ 70%: pest or weed control at 100 ppm [5] | pest or weed control at 100 ppm [7] | pest or weed control at 100 ppm [10]
95%: pest or weed control at 0.032 ppm [4] | pest or weed control at 0.16 ppm [4] | pest or weed control at 0.8 ppm [4] | pest or weed control at 4 ppm [4] | pest or weed control at 0.04 µg/cm2, 0.04 µg/cm2 [9] | pest or weed control at 0.2 µg/cm2, 0.2 µg/cm2 [9] | pest or weed control at 1 µg/cm2, 1 µg/cm2 [9]

O=C(Nc1cc(C(=O)Nc2c(I)cc(C(F)(C(F)(F)F)C(F)(F)F)cc2C(F)(F)F)ccc1F)c1ccc(F)cc1 [Compound 84]
100%: pest or weed control at 32 ng [1] | pest or weed control at 0.00016 mg [1] | pest or weed control at 0.0008 mg [1]
95%: pest or weed control at 0.16 ppm [4] | pest or weed control at 0.8 ppm [4] | pest or weed control at 4 ppm [4]
90%: pest or weed control at 0.04 µg/cm2, 0.04 µg/cm2 ([2]; dose 0.04 μg/cm^2, 48 h) | pest or weed control at 0.2 µg/cm2, 0.2 µg/cm2 [2] | pest or weed control at 1 µg/cm2, 1 µg/cm2 [2] | pest or weed control at 0.2 µg/cm2, 0.2 µg/cm2 [3] | pest or weed control at 1 µg/cm2, 1 µg/cm2 [3] | pest or weed control at 0.2 µg/cm2, 0.2 µg/cm2 [6] | pest or weed control at 1 µg/cm2, 1 µg/cm2 [6] | pest or weed control at 0.2 µg/cm2, 0.2 µg/cm2 ([8]; dose 0.2 μg/cm^2, 48 h) | pest or weed control at 1 µg/cm2, 1 µg/cm2 ([8]; dose 1 μg/cm^2, 48 h) | pest or weed control at 5 µg/cm2, 5 µg/cm2 [8]
≥ 70%: pest or weed control at 100 ppm [5] | pest or weed control at 100 ppm [7] | pest or weed control at 100 ppm [10]

O=C(Nc1cccc(C(=O)Nc2c(I)cc(C(F)(C(F)(F)F)C(F)(F)F)cc2C(F)(F)F)c1F)c1ccc(F)nc1 [Compound 116, 6-fluoro-N-(2-fluoro-3-((2-iodo-4-(perfluoropropan-2-yl)-6-(trifluoromethyl)phenyl)carbamoyl)phenyl)nicotinamide]
90%: pest or weed control at 1 µg/cm2, 1 µg/cm2 [2] | pest or weed control at 0.2 µg/cm2, 0.2 µg/cm2 [6] | pest or weed control at 1 µg/cm2, 1 µg/cm2 [6] | pest or weed control at 0.2 µg/cm2, 0.2 µg/cm2 ([8]; 48 h) | pest or weed control at 1 µg/cm2, 1 µg/cm2 ([8]; 48 h)
100%: pest or weed control at 32 ng [1] | pest or weed control at 0.00016 mg [1] | pest or weed control at 0.0008 mg [1]
95%: pest or weed control at 0.0064 ppm ([4]; dose 0.0064 ppm in citrated cattle blood) | pest or weed control at 0.032 ppm [4] | pest or weed control at 0.16 ppm [4] | pest or weed control at 0.8 ppm [4] | pest or weed control at 4 ppm [4] | pest or weed control at 0.04 µg/cm2, 0.04 µg/cm2 [9] | pest or weed control at 0.2 µg/cm2, 0.2 µg/cm2 [9] | pest or weed control at 1 µg/cm2, 1 µg/cm2 [9]
≥ 70%: pest or weed control at 100 ppm [5] | pest or weed control at 100 ppm [7] | pest or weed control at 100 ppm [10]

O=C(Nc1cccc(C(=O)Nc2c(I)cc(C(F)(C(F)(F)F)C(F)(F)F)cc2OC(F)(F)F)c1F)c1ccc(C(F)(F)F)nc1 [Compound 118, N-(2-fluoro-3-((2-iodo-4-(perfluoropropan-2-yl)-6-(trifluoromethoxy)phenyl)carbamoyl)phenyl)-6-(trifluoromethyl)nicotinamide]
95%: pest or weed control at 0.032 ppm [4] | pest or weed control at 0.16 ppm [4] | pest or weed control at 0.8 ppm [4] | pest or weed control at 4 ppm [4] | pest or weed control at 0.2 µg/cm2, 0.2 µg/cm2 [9] | pest or weed control at 1 µg/cm2, 1 µg/cm2 [9]
100%: pest or weed control at 32 ng [1] | pest or weed control at 0.00016 mg [1] | pest or weed control at 0.0008 mg [1]
90%: pest or weed control at 0.2 µg/cm2, 0.2 µg/cm2 [2] | pest or weed control at 1 µg/cm2, 1 µg/cm2 [2] | pest or weed control at 0.2 µg/cm2, 0.2 µg/cm2 [6] | pest or weed control at 1 µg/cm2, 1 µg/cm2 [6] | pest or weed control at 0.2 µg/cm2, 0.2 µg/cm2 ([8]; dose 0.2 μg/cm^2, 48 h) | pest or weed control at 1 µg/cm2, 1 µg/cm2 ([8]; dose 1 μg/cm^2, 48 h) | pest or weed control at 5 µg/cm2, 5 µg/cm2 [8]
≥ 70%: pest or weed control at 100 ppm [5] | pest or weed control at 100 ppm [7] | pest or weed control at 100 ppm [10]
